In ChEMBL document CHEMBL6120988, “Mitochondria-targeting artesunate-rhein conjugates: Linker-modulated cell-permeability, heme-affinity and anticancer activity” (Eur J Med Chem, 2025):
Activity calls are given as the source filed them. The rule behind the calls is not given here.

Assays:
4T1 [1] = assay: Antitumor activity against mouse 4T1 cells allografted in female BALB/c mouse assessed as increase in apoptotic cells at 100 mg/kg, po administrated every day for 15 times and measured after 22 days by TUNEL staining based assay; assay type: functional, organism-based; settings: time 22.0 day
[2] = AUC(0 to t) in mouse at 100 mg/kg, po; assay type: ADME, organism-based; settings: in vivo
[3] = Drug localization in mitochondria of mouse 4T1 cells assessed as fluorescence intensity measured using pearson co-efficient incubated for 10 hrs by mito-tracker red fluorescent dye based confocal laser scanning microscopic analysis; assay type: ADME; settings: 4t1, 10 h
4T1 [4] = assay: Antitumor activity against mouse 4T1 cells allografted in female BALB/c mouse assessed as increase in nuclear shrinkage at 100 mg/kg, po administrated every day for 15 times and measured for 22 days; assay type: functional, organism-based; settings: time 22.0 day
4T1 [5] = assay: Antitumor activity against mouse 4T1 cells allografted in female BALB/c mouse assessed as increase in infiltration of CD3+ CD8+ T lymphocytes in tumors at 10 mg/kg, iv administrated every 3 days for 5 times and measured after 22 days by flow cytometry analysis (reference value: 7.87 %); assay type: functional; settings: time 22 day
[6] = Drug uptake in mouse 4T1 cells after 3 hrs by flow cytometry analysis; assay type: ADME, cell-based; settings: 4t1, 3 h
4T1 [7] = assay: Antitumor activity against mouse 4T1 cells allografted in female BALB/c mouse assessed as increase in apoptotic cells at 10 mg/kg, iv administrated every 3 day for 5 times and measured after 22 days by TUNEL staining based assay; assay type: functional, organism-based; settings: time 22.0 day
4T1 [8] = assay: Antitumor activity against mouse 4T1 cells allografted in female BALB/c mouse assessed as tumor inhibition rate at 10 mg/kg, iv administrated every 3 day for 5 times and measured after 22 days relative to control; assay type: functional; parameters: scale not given: the % may be the effect or the level left; settings: time 22 day
4T1 [9] = assay: Induction of mitochondrial dysfunction in mouse 4T1 cells assessed as coupling efficiency; assay type: functional, cell-based
4T1 [10] = assay: Antitumor activity against mouse 4T1 cells allografted in female BALB/c mouse assessed as increase in infiltration of CD8+IFN-gamma+ lymphocytes in tumors at 100 mg/kg, po administrated every day for 15 times and measured after 22 days by flow cytometry (reference value: 5.99%); assay type: functional; settings: time 22 day
4T1 [11] = assay: Antitumor activity against mouse 4T1 cells allografted in female BALB/c mouse assessed as reduction in tumor tissue volume at 10 mg/kg, iv administrated every 3 day for 5 times and measured after for 22 days; assay type: functional, organism-based; settings: time 22.0 day
4T1 [12] = assay: Antitumor activity against mouse 4T1 cells allografted in female BALB/c mouse assessed as increase in infiltration of CD8+IFN-gamma+ lymphocytes in tumors at 10 mg/kg, iv administrated every day for 15 times and measured after 22 days by flow cytometry (reference value: 5.58%); assay type: functional; settings: time 22 day
[13] = Toxicity against female BALB/c mouse allografted with mouse 4T1 cells assessed as mean corpuscular volume at 100 mg/kg, po administrated every day for 15 times and measured after 22 days; assay type: organism-based; settings: in vivo, 528 h, time 22 day
4T1 [14] = assay: Induction of immunogenic cell death in mouse 4T1 cells allografted in female BALB/c mouse assessed as increase in CD80+ CD86+CD11c+ cells DC maturation at 100 mg/kg, po administrated every day for 15 times and measured after 22 days by flow cytometry (reference value: 7.20 %); assay type: functional; settings: time 22 day
[15] = MRT (0 to infinity) in mouse at 100 mg/kg, po; assay type: ADME, organism-based; settings: in vivo
4T1 [16] = assay: Induction of repolarization of M2 macrophages into M1 macrophages in mouse 4T1 cells assessed as ratio of M2 to M1 macrophages; assay type: functional, cell-based
MCF7 = assay: Cytotoxicity against human MCF7 cells assessed as cell viability by MTT assay; assay type: functional, cell-based
[17] = Toxicity in female BALB/c mouse allografted with mouse 4T1 cells assessed as effect on blood platelet at 100 mg/kg, po administrated every day for 15 times and measured after 22 days; assay type: organism-based; settings: in vivo, 528 h, time 22 day
[18] = Toxicity against female BALB/c mouse allografted with mouse 4T1 cells assessed as hemoglobin at 100 mg/kg, po administrated every day for 15 times and measured after 22 days; assay type: organism-based; settings: in vivo, 528 h, time 22 day
4T1 [19] = assay: Antitumor activity against mouse 4T1 cells allografted in female BALB/c mouse assessed as inhibition of cell proliferation at 100 mg/kg, po administrated every day for 15 times and measured after 22 days by PCNA assay; assay type: functional, organism-based; settings: time 22.0 day
4T1 [20] = assay: Immunostimulatory activity in mouse 4T1 cells implanted in female BALB/c mouse assessed as reduction in immunosuppressive CD206+ expression; assay type: functional, cell-based
4T1 [21] = assay: Antitumor activity against mouse 4T1 cells allografted in female BALB/c mouse assessed as increase in nuclear shrinkage at 10 mg/kg, iv administrated every 3 day for 5 times and measured after 22 days; assay type: functional, organism-based; settings: time 22.0 day
4T1 [22] = assay: Antitumor activity against mouse 4T1 cells allografted in female BALB/c mouse assessed as reduction in tumor tissue weight at 100 mg/kg, po administrated every day for 15 times and measured after 22 days; assay type: functional, organism-based; settings: time 22.0 day
4T1 [23] = assay: Antitumor activity against mouse 4T1 cells allografted in female BALB/c mouse assessed as disappearance of cancer cells at 10 mg/kg, iv administrated every 3 days for 5 times and measured after 22 days by H and E staining based analysis; assay type: functional, organism-based; settings: time 22.0 day
4T1 [24] = assay: Induction of immunogenic cell death in mouse 4T1 cells assessed as increase in CRT expression by flow cytometry analysis (reference value: 2.55%); assay type: functional
4T1 [25] = assay: Antitumor activity against mouse 4T1 cells allografted in female BALB/c mouse assessed as increase in infiltration of CD3+ CD8+ T lymphocytes in tumors at 100 mg/kg, po administrated every day for 15 times and measured after 22 days by flow cytometry (reference value: 6.91 %); assay type: functional; settings: time 22 day
[26] = Toxicity against female BALB/c mouse allografted with mouse 4T1 cells assessed as effect on red blood cells at 10 mg/kg, iv administrated every 3 days for 5 times and measured after 22 days; assay type: organism-based; settings: in vivo, 528 h, time 22 day
[27] = Toxicity against female BALB/c mouse allografted with mouse 4T1 cells assessed as effect on white blood cells at 100 mg/kg, po administrated every day for 15 times and measured after 22 days; assay type: organism-based; settings: in vivo, 528 h, time 22 day
4T1 [28] = assay: Induction of apoptosis in mouse 4T1 cells assessed as early apoptotic cells by Annexin V-FITC and PI staining based flow cytometry analysis(reference value: 3.60 %); assay type: functional
4T1 [29] = assay: Cytotoxicty against mouse 4T1 cells assessed as cell death by measuring red staining by calcein/PI staining based live/dead staining analysis; assay type: functional
4T1 [30] = assay: Antitumor activity against mouse 4T1 cells allografted in female BALB/c mouse assessed as reduction in tumor tissue volume at 100 mg/kg, po administrated every day for 15 times and measured after 22 days relative to control; assay type: functional, organism-based; settings: time 22.0 day
4T1 [31] = assay: Induction of mitochondrial dysfunction in mouse 4T1 cells assessed as oxygen consumption rate; assay type: functional, cell-based
4T1 [32] = assay: Antitumor activity against mouse 4T1 cells allografted in female BALB/c mouse assessed as tumor inhibition rate at 100 mg/kg, po administrated every day for 15 times and measured after 22 days relative to control; assay type: functional; parameters: scale not given: the % may be the effect or the level left; settings: time 22 day
4T1 [33] = assay: Induction of mitochondrial dysfunction in mouse 4T1 cells assessed as ATP production; assay type: functional, cell-based
4T1 [34] = assay: Induction of apoptosis in mouse 4T1 cells assessed as late apoptotic cells by Annexin V-FITC and PI staining based flow cytometry analysis (reference value: 0.13 %); assay type: functional
[35] = Toxicity against female BALB/c mouse allografted with mouse 4T1 cells assessed as mean corpuscular hemoglobin concentration at 10 mg/kg, iv administrated every 3 days for 5 times and measured after 22 days; assay type: organism-based; settings: in vivo, 528 h, time 22 day

C[C@H]1[C@H](OC(=O)CCC(=O)OCCCCOC(=O)c2cc(O)c3c(c2)C(=O)c2cccc(O)c2C3=O)O[C@@H]2O[C@@]3(C)CC[C@H]4[C@H](C)CC[C@@H]1[C@@]24OO3
Activity (4T1 [1]): Active
AUC(0-t) [2]: 18200 ng·h/mL
Flu intensity [3]: 0.96
Activity (4T1 [4]): Active
Activity (4T1 [5]): 15.33%
Activity [6]: Active
Activity (4T1 [7]): Active
Activity (4T1 [8]): 79.15%
Activity (4T1 [9]): Active
Activity (4T1 [10]): 13.3%
Activity (4T1 [11]): Active
Activity (4T1 [12]): 12.3%
Activity [13]: Non-toxic
Activity (4T1 [14]): 17.4%
MRT inf [15]: 4.95 h
Activity (4T1 [16]): Active; Compound Triggers Repolarization By Reversing The Ratio Of M2 To M1 Macrophages
IC50 (MCF7): 1900 nM
Activity [17]: Non-toxic
Activity [18]: Non-toxic
Activity (4T1 [19]): Active
Activity (4T1 [20]): Active
Activity (4T1 [21]): Active
Activity (4T1 [22]): Active
Activity (4T1 [23]): Active
Activity (4T1 [24]): 32.82%
Activity (4T1 [25]): 15.4%
Activity [26]: Non-toxic
Activity [27]: Non-toxic
Activity (4T1 [28]): 34.8%
Activity (4T1 [29]): Active
Activity (4T1 [30]): Active; Tumor Lighter Weight Than Pbs Treatment
Activity (4T1 [31]): Active
Activity (4T1 [32]): 76.84%
Activity (4T1 [33]): Active
Activity (4T1 [34]): 29.4%
Activity [35]: Non-toxic
